# Assay results published in patent US8227406B2, “Antimicrobial peptides” (Dermagen AB, priority 2006, dated 2012).
# Several values for one entry are separate records, joined by “and”; a condition that tells them apart may be missing. Equal entries are not always repeated. Where no end group is shown, it is not given here.
# Assays:
# [1] = system: Staphylococcus aureus ATCC29213; assay: Radial diffusion assay (RDA), S. aureus; format: cell-based; set-up: Data (RDA antimicrobial activity, single replicates) / Mean (RDA antimicrobial activity): unit not given here; details: for Data (RDA antimicrobial activity, single replicates) / Mean (RDA antimicrobial activity): S. aureus; for Data (RDA antimicrobial activity, single replicates): individual replicate; for Mean (RDA antimicrobial activity): mean of 3
# Description: (§1) Peptides. Peptides were from Sigma-Genosys, generated by a peptide synthesis platform (PEPscreen®, Custom Peptide Libraries, SigmaGenosys). Yield was ˜1-6 mg, and peptide length 20 amino acids. MALDI-ToF Mass Spectrometry was perfomed on these peptides. Average Crude Purity of 20mers was ˜60%. Peptides were supplied lyophilized and in a 96-well tube rack. Prior to biological testing the PEPscreen peptides were diluted in dH2O (5 mM stock), and stored at −20 C. This stock solution was used for the subsequent experiments.
# (§2) Eschericia coli ATCC25922, Staphylococcus aureus ATCC29213, and the fungal isolate Candida albicans ATCC90028 were obtained from the Department of Bacteriology, Lund University Hospital.
# (§3) Radial diffusion assays (RDA) were performed essentially as described earlier (Lehrer, R. I., Rosenman, M., Harwig, S. S., Jackson, R. & Eisenhauer, P. (1991) Ultrasensitive assays for endogenous antimicrobial polypeptides, J Immunol Methods. 137, 167-73). Briefly, bacteria (E. coli, S. aureus) or fungi (C. albicans) were grown to midlogarithmic phase in 10 ml of full-strength (3% w/v) trypticase soy broth (TSB) (Becton-Dickinson, Cockeysville, Md.). The microorganisms were washed once with 10 mM Tris, pH 7.4. 4×10^6 bacterial cfu or 1×10^5 fungal cfu was added to 5 ml of the underlay agarose gel, consisting of 0.03% (w/v) TSB, 1% (w/v) low-electroendoosmosistype (Low-EEO) agarose (Sigma, St Louise Mo.) and a final concentration of 0.02% (v/v) Tween 20 (Sigma). The underlay was poured into a Ø 85 mm petri dish. After agarose solidified, 4 mm-diameter wells were punched and 6 μl of test sample was added to each well. Plates were incubated at 37° C. for 3 hours to allow diffusion of the peptides. The underlay gel was then covered with 5 ml of molten overlay (6% TSB and 1% Low-EEO agarose in dH2O). Antimicrobial activity of a peptide is visualized as a clear zone around each well after 18-24 hours of incubation at 37° C. for bacteria and 28° C. for Candida albicans. Other examples of peptides that were screened and found to show an increased effect against the above mentioned microorgansism are listed below. Some of the results are found in table 1c showing the effects against C. albicans, table 1d E. coli and table 1e S. aureus.
# [2] = system: Eschericia coli ATCC25922; assay: Radial diffusion assay (RDA), E. coli; format: cell-based, Escherichia coli; set-up: Data (RDA antimicrobial activity, single replicates) / Mean (RDA antimicrobial activity): unit not given here; details: for Data (RDA antimicrobial activity, single replicates) / Mean (RDA antimicrobial activity): E. coli; for Data (RDA antimicrobial activity, single replicates): individual replicate; for Mean (RDA antimicrobial activity): mean of 3
# Description: as §1, §2, §3
# [3] = system: Candida albicans ATCC90028; assay: Radial diffusion assay (RDA), C. albicans; format: cell-based; set-up: unit not given here; details: for RDA Mean, C. albicans / RDA Data (single replicates), C. albicans: Table 1c; for RDA Data (single replicates), C. albicans: individual values
# Description: as §1, §2, §3
substance,measurement,setting,value
HKHGHLHLKHKNKGKKNGKH [Peptide 36],S. aureus ATCC 29213 Mean,"[1]; Table 1a, RDA clear zone",0.000
same,"E.coli ATCC 25922 Mean, Ingrowth* counted","[2]; Table 1a, RDA clear zone, ingrowth counted",0.000
same,"E.coli ATCC 25922 Mean, Ingrowth not counted","[2]; Table 1a, RDA clear zone, ingrowth not counted",0.000
same,Candida albicans ATCC 90028 Mean,"[3]; Table 1a, RDA clear zone",0.000
"PKR-21: growth factor derived peptide, untagged parent of PKR21WWW; sequence not printed (PKRKKKGGKNGKNRRNRKKKN; listed as Homo sapiens)","Data (RDA antimicrobial activity, single replicates)",[1]; peptide 0.1 μM,0
same,Mean (RDA antimicrobial activity),[1]; peptide 0.1 μM,0.00
same,"Data (RDA antimicrobial activity, single replicates)",[1]; peptide 0.5 μM,0
same,Mean (RDA antimicrobial activity),[1]; peptide 0.5 μM,0.00
same,"Data (RDA antimicrobial activity, single replicates)",[1]; peptide 1 μM,0
same,Mean (RDA antimicrobial activity),[1]; peptide 1 μM,0.00
same,"Data (RDA antimicrobial activity, single replicates)",[1]; peptide 5 μM,0
same,Mean (RDA antimicrobial activity),[1]; peptide 5 μM,0.00
same,"Data (RDA antimicrobial activity, single replicates)",[1]; peptide 10 μM,0.17 and 0.4 and 0.77
same,Mean (RDA antimicrobial activity),[1]; peptide 10 μM,0.45
same,"Data (RDA antimicrobial activity, single replicates)",[1]; peptide 50 μM,1.06 and 1.6 and 1.24
same,Mean (RDA antimicrobial activity),[1]; peptide 50 μM,1.30
same,"Data (RDA antimicrobial activity, single replicates)",[1]; peptide 100 μM,2.63 and 2.54 and 1.84
same,Mean (RDA antimicrobial activity),[1]; peptide 100 μM,2.34
same,"Data (RDA antimicrobial activity, single replicates)",[2]; peptide 0.1 μM,0
same,Mean (RDA antimicrobial activity),[2]; peptide 0.1 μM,0.00
same,"Data (RDA antimicrobial activity, single replicates)",[2]; peptide 0.5 μM,0.3 and 0.7 and 0.58
same,Mean (RDA antimicrobial activity),[2]; peptide 0.5 μM,0.53
same,"Data (RDA antimicrobial activity, single replicates)",[2]; peptide 1 μM,0.56 and 0.97 and 1.02
same,Mean (RDA antimicrobial activity),[2]; peptide 1 μM,0.85
same,"Data (RDA antimicrobial activity, single replicates)",[2]; peptide 5 μM,0.63 and 1.65 and 0.55
same,Mean (RDA antimicrobial activity),[2]; peptide 5 μM,0.94
same,"Data (RDA antimicrobial activity, single replicates)",[2]; peptide 10 μM,0.94 and 1.08 and 1.02
same,Mean (RDA antimicrobial activity),[2]; peptide 10 μM,1.01
same,"Data (RDA antimicrobial activity, single replicates)",[2]; peptide 50 μM,1.16 and 1.52 and 1.01
same,Mean (RDA antimicrobial activity),[2]; peptide 50 μM,1.23
same,"Data (RDA antimicrobial activity, single replicates)",[2]; peptide 100 μM,1.34 and 1.37 and 1.39
same,Mean (RDA antimicrobial activity),[2]; peptide 100 μM,1.37
same,"RDA Mean, C. albicans",[3]; peptide 0.1 μM,0.00
same,"RDA Data (single replicates), C. albicans",[3]; peptide 0.1 μM,0.00
same,"RDA Mean, C. albicans",[3]; peptide 0.5 μM,0.00
same,"RDA Data (single replicates), C. albicans",[3]; peptide 0.5 μM,0.00
same,"RDA Mean, C. albicans",[3]; peptide 1 μM,0.00
same,"RDA Data (single replicates), C. albicans",[3]; peptide 1 μM,0.00
same,"RDA Mean, C. albicans",[3]; peptide 5 μM,0.00
same,"RDA Data (single replicates), C. albicans",[3]; peptide 5 μM,0.00
same,"RDA Mean, C. albicans",[3]; peptide 10 μM,0.46
same,"RDA Data (single replicates), C. albicans",[3]; peptide 10 μM,0.42 and 0.39 and 0.58
same,"RDA Mean, C. albicans",[3]; peptide 50 μM,4.04
same,"RDA Data (single replicates), C. albicans",[3]; peptide 50 μM,4.66 and 3.95 and 3.51
same,"RDA Mean, C. albicans",[3]; peptide 100 μM,4.59
same,"RDA Data (single replicates), C. albicans",[3]; peptide 100 μM,4.65 and 4.56 and 4.55
